Laboratory results reported in patent publication US10501461B2, “Tyrosine amide derivatives as Rho-kinase inhibitors” (CHIESI FARMACEUTICI S.P.A., priority 2017, dated 2019).

How the values were obtained:
Rho kinase 1 (ROCK-I) = Rho kinase 1 (ROCK-I) (Homo sapiens, UniProt Q13464); experiment: In vitro Rho kinase inhibitory activity assay (ADP-Glo), Rho kinase 1; format: biochemical; settings: 10 μM ATP, 25° C., expressed as range of activity
Summary of the method: (§1)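 Each kinase (ROCK1 or ROCK2) sat with compound for 30 min at 25 °C before 10 μM ATP started a 1 h reaction on 2.5 μM myelin basic protein (Tris pH 7.5, MgCl2, BSA, DTT, 1% DMSO). ADP formed was read by ADP-Glo luminescence. Dose-response IC50s were converted to Ki by Cheng-Prusoff.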

Rho kinase 2 (ROCK-II) = Rho kinase 2 (ROCK-II) (Homo sapiens, UniProt O75116); experiment: In vitro Rho kinase inhibitory activity assay (ADP-Glo), Rho kinase 2; format: biochemical; settings: 10 μM ATP, 25° C., expressed as range of activity
Sequence of Rho kinase 2 (ROCK-II) (O75116 whole entry): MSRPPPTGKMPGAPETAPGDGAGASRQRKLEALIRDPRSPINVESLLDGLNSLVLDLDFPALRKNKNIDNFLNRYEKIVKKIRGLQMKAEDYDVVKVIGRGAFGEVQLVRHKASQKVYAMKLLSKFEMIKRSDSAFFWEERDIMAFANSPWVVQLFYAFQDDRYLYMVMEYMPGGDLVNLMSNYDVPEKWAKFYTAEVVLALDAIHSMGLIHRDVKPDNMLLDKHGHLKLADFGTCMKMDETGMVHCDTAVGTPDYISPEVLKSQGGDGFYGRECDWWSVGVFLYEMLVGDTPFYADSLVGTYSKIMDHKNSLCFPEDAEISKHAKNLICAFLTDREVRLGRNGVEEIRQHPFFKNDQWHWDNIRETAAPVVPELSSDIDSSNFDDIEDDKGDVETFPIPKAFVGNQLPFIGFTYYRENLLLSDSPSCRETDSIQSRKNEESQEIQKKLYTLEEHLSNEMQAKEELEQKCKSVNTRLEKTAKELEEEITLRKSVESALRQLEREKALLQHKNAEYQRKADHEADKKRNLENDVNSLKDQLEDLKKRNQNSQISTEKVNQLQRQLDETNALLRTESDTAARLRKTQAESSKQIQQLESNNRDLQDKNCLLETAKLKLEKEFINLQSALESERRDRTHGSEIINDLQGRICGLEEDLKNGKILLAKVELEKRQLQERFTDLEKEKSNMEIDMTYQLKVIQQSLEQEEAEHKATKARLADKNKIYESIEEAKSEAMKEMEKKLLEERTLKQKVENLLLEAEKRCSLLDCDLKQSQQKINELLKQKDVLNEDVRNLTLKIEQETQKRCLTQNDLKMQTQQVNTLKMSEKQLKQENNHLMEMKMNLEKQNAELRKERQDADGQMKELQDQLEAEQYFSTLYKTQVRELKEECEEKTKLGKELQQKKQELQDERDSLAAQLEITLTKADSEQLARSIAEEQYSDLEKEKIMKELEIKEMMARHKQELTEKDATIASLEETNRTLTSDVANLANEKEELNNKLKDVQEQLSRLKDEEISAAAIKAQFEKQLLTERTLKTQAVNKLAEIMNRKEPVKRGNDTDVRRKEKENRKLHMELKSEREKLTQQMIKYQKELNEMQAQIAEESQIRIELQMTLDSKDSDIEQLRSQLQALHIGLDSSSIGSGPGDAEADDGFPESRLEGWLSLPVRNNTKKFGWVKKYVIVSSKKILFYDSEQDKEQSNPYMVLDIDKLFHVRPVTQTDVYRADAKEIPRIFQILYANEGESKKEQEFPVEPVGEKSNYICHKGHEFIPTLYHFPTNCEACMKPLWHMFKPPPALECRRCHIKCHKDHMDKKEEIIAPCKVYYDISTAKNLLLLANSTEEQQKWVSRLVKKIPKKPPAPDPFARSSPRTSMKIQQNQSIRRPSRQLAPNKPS
Summary of the method: as §1

Sequence of Rho kinase 1 (ROCK-I) (Q13464 whole entry): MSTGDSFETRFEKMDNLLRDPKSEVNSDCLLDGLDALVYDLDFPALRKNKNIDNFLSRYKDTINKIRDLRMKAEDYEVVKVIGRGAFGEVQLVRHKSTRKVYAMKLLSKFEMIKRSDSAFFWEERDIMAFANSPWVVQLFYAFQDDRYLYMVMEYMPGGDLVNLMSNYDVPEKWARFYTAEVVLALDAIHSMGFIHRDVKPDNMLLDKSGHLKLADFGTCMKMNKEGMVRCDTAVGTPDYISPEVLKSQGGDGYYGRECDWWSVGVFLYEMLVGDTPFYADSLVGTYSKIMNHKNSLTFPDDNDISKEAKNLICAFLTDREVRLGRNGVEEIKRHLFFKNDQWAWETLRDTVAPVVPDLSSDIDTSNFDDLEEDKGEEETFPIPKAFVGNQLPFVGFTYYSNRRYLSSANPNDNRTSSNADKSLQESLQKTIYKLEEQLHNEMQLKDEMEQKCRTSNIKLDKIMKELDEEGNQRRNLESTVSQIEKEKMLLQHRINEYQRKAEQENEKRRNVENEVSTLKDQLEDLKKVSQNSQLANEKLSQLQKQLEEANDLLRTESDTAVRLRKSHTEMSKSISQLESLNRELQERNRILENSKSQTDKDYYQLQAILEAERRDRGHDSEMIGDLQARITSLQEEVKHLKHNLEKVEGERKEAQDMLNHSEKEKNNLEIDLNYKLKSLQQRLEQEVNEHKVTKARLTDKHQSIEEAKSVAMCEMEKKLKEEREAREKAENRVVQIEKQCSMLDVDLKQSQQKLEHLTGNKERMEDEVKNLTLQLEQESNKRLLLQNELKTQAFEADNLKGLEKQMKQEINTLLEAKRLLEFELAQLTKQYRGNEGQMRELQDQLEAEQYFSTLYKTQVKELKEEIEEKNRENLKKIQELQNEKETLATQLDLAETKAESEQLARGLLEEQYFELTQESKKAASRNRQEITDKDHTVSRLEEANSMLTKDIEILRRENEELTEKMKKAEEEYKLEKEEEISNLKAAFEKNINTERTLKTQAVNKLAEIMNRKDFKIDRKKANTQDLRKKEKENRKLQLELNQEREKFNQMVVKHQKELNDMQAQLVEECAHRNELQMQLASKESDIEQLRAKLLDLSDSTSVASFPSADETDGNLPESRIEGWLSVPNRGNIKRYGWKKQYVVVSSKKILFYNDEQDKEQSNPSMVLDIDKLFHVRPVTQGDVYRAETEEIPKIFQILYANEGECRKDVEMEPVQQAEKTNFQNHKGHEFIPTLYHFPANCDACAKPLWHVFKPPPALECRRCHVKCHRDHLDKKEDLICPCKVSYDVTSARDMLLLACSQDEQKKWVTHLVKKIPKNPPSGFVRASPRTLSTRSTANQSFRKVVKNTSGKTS

Structure (SMILES)	Ki (Rho kinase 1 (ROCK-I)) [nM]	Ki (Rho kinase 2 (ROCK-II)) [nM]
N[C@@H](Cc1ccc(Oc2ccnc3[nH]ccc23)cc1)C(=O)Nc1ccc(Cl)nc1 [Example 94, (S)-3-(4-((1H-pyrrolo[2,3-b]pyridin-4-yl)oxy)phenyl)-2-amino-N-(6-chloropyridin-3-yl)propanamide]	< 3	< 3
CN1C[C@@H]2C[C@H]1CN2C(=O)[C@@H](N)Cc1ccc(Oc2ccnc3[nH]cc(CO)c23)c(F)c1 [Example 211, (S)-2-amino-3-(3-fluoro-4-((3-(hydroxymethyl)-1H-pyrrolo[2,3-b]pyridin-4-yl)oxy)phenyl)-1-((1S,4S)-5-methyl-2,5-diazabicyclo[2.2.1]-heptan-2-yl)propan-1-one]	3 to 30	3 to 30
CN[C@@H](Cc1ccc(Oc2ccnc3[nH]ccc23)cc1)C(=O)NC1CCCCC1 [Example 131, (S)-3-(4-((1H-pyrrolo[2,3-b]pyridin-4-yl)oxy)phenyl)-N-cyclohexyl-2-(methylamino)propanamide]	3 to 30	< 3
N[C@@H](Cc1ccc(Oc2ccnc3[nH]cc(-c4ccncc4)c23)cc1)C(=O)N1CCN(Cc2ccccc2)CC1 [Example 192, (S)-2-amino-1-(4-benzylpiperazin-1-yl)-3-(4-((3-(pyridin-4-yl)-1H-pyrrolo[2,3-b]pyridin-4-yl)oxy)phenyl)propan-1-one]	< 3	< 3
Cc1c[nH]c2nccc(Oc3ccc(CC(N)C(=O)NCC4CCN(Cc5ccccc5)CC4)cc3F)c12 (stereo not drawn) [Example 82, 2-amino-N-((1-benzylpiperidin-4-yl)methyl)-3-(3-fluoro-4-((3-methyl-1H-pyrrolo[2,3-b]pyridin-4-yl)oxy)phenyl)propanamide]	< 3	< 3
N[C@@H](Cc1ccc(Oc2ccnc3[nH]cc(CO)c23)c(F)c1)C(=O)NC1CCOCC1 [Example 209, (S)-2-amino-3-(3-fluoro-4-((3-(hydroxymethyl)-1H-pyrrolo[2,3-b]pyridin-4-yl)oxy)phenyl)-N-(tetrahydro-2H-pyran-4-yl)propanamide]	3 to 30	< 3
Cc1c[nH]c2nccc(Oc3ccc(C[C@H](N)C(=O)NCC4CN(C)C4)cc3F)c12 [Example 47, (S)-2-amino-3-(3-fluoro-4-((3-methyl-1H-pyrrolo[2,3-b]pyridin-4-yl)oxy)phenyl)-N-((1-methylazetidin-3-yl)methyl)propanamide]	< 3	< 3
Cc1c[nH]c2nccc(Oc3ccc(C[C@H](N)C(=O)N4CCOC(c5ccccc5)C4)cc3F)c12 (mixture of isomers) [Example 4, (2S)-2-amino-3-(3-fluoro-4-((3-methyl-1H-pyrrolo[2,3-b]pyridin-4-yl)oxy)phenyl)-1-(2-phenylmorpholino)propan-1-one]	< 3	< 3
NC(Cc1ccc(Oc2ccnc3[nH]ccc23)cc1)C(=O)Nc1ccc(C(F)(F)F)cc1 (single isomer, unassigned) [Example 91B, 3-(4-((1H-pyrrolo[2,3-b]pyridin-4-yl)oxy)phenyl)-2-amino-N-(4-(trifluoromethyl)phenyl)propanamide]	3 to 30	3 to 30
Cc1c[nH]c2nccc(Oc3ccc(C[C@H](N)C(=O)N4CCN(C)C(c5ccccc5)C4)cc3F)c12 (mixture of isomers) [Example 6, (2S)-2-amino-3-(3-fluoro-4-((3-methyl-1H-pyrrolo[2,3-b]pyridin-4-yl)oxy)phenyl)-1-(4-methyl-3-phenylpiperazin-1-yl)propan-1-one]	< 3	< 3
Cc1c[nH]c2ncnc(Oc3ccc(C[C@H](N)C(=O)N4CCC(c5ccncc5)CC4)cc3F)c12 [Example 122, (S)-2-amino-3-(3-fluoro-4-((5-methyl-7H-pyrrolo[2,3-d]pyrimidin-4-yl)oxy)phenyl)-1-(4-(pyridin-4-yl)piperidin-1-yl)propan-1-one]	3 to 30	< 3
N[C@H](Cc1ccc(Oc2ccnc3[nH]ccc23)cc1)C(=O)NC1CCCCC1 [Example 112, (R)-3-(4-((1H-pyrrolo[2,3-b]pyridin-4-yl)oxy)phenyl)-2-amino-N-cyclohexylpropanamide]	> 30	3 to 30

Results, then the compound that gave them:

Ki (Rho kinase 1 (ROCK-I)) [nM]	Ki (Rho kinase 2 (ROCK-II)) [nM]	Structure (SMILES)
> 30	3 to 30	CN(C)C(Cc1ccc(Oc2ccnc3[nH]ccc23)cc1)C(=O)NC1CCCCC1 (stereo not drawn) [Example 183, 3-(4-((1H-pyrrolo[2,3-b]pyridin-4-yl)oxy)phenyl)-N-cyclohexyl-2-(dimethylamino)propanamide]
< 3	< 3	Cc1c[nH]c2nccc(Oc3ccc(C[C@H](N)C(=O)N4CCN(CC5CCN(S(C)(=O)=O)CC5)CC4)cc3F)c12 [Example 161, (S)-2-amino-3-(3-fluoro-4-((3-methyl-1H-pyrrolo[2,3-b]pyridin-4-yl)oxy)phenyl)-1-(4-((1-(methylsulfonyl)piperidin-4-yl)methyl)piperazin-1-yl)propan-1-one]
< 3	< 3	N[C@@H](Cc1ccc(Oc2ccnc3[nH]cc(-c4ccccc4)c23)cc1)C(=O)N1CCN(Cc2ccccc2)CC1 [Example 199, (S)-2-amino-1-(4-benzylpiperazin-1-yl)-3-(4-((3-phenyl-1H-pyrrolo[2,3-b]pyridin-4-yl)oxy)phenyl)propan-1-one]
< 3	< 3	Cc1c[nH]c2nccc(Oc3ccc(C[C@H](N)C(=O)N4CCN(Cc5cncn5C)CC4)cc3F)c12 [Example 158, (S)-2-amino-3-(3-fluoro-4--((3-methyl-1H-pyrrolo[2,3-b]pyridin-4-yl)oxy)phenyl)-1-(4-((1-methyl-1H-imidazol-5-yl)methyl)piperazin-1-yl)propan-1-one]
< 3	< 3	Cc1c[nH]c2nccc(Oc3ccc(C[C@H](N)C(=O)N4CCC[C@@H](N(C)C)C4)cc3F)c12 [Example 50, (S)-2-amino-1-((R)-3-(dimethylamino)piperidin-1-yl)-3-(3-fluoro-4-((3-methyl-1H-pyrrolo[2,3-b]pyridin-4-yl)oxy)phenyl)propan-1-one]
3 to 30	< 3	Cc1c[nH]c2nccc(Oc3ccc(CC(N)C(=O)N4CCN(C)CC4CO)cc3F)c12 (stereo not drawn) [Example 64, 2-amino-3-(3-fluoro-4-((3-methyl-1H-pyrrolo[2,3-b]pyridin-4-yl)oxy)phenyl)-1-(2-(hydroxymethyl)-4-methylpiperazin-1-yl)propan-1-one]
< 3	< 3	Cc1c[nH]c2nccc(Oc3ccc(C[C@H](N)C(=O)N4C[C@H]5CN(C)C[C@H]5C4)cc3F)c12 [Example 30, (S)-2-amino-3-(3-fluoro-4-((3-methyl-1H-pyrrolo[2,3-b]pyridin-4-yl)oxy)phenyl)-1-((3aR,6aS)-5-methylhexahydropyrrolo[3,4-c]pyrrol-2(1H)-yl)propan-1-one]
< 3	< 3	N[C@@H](Cc1ccc(Oc2ccnc3[nH]cc(I)c23)cc1)C(=O)NC1CCCCC1 [Example 190, (S)-2-amino-N-cyclohexyl-3-(4-((3-iodo-1H-pyrrolo[2,3-b]pyridin-4-yl)oxy)phenyl)propanamide]
< 3	< 3	Cc1c[nH]c2nccc(Oc3ccc(C[C@H](N)C(=O)N4CC=C(c5ccccc5)CC4)cc3F)c12 [Example 21, (S)-2-amino-3-(3-fluoro-4-((3-methyl-1H-pyrrolo[2,3-b]pyridin-4-yl)oxy)phenyl)-1-(4-phenyl-5,6-dihydropyridin-1(2H)-yl)propan-1-one]
